What was measured:
[1] = system: chronic myelogenous leukemia (CML) patients; details: CML patients on imatinib; cited from earlier work
Text: [1] […] Approximately 90% of CML patients achieve initial remission with ...

Bcr-Abl [2] = molecular target: T1, Bcr-Abl (Homo sapiens, UniProt P00519+P11274); experiment: Cell-based biosensor assay, MRM (LC-MS/MS) detection of biosensor phosphorylation; details: for phosphorylated peptide detected by MRM (in words): biosensor 5 min, alone or with imatinib or pervanadate; for phosphorylated peptide detected by MRM (in words) / phosphopeptide, 580-480 transition / unphosphorylated peptide, 540-604 transition / phosphopeptide, 580-604 transition / unphosphorylated peptide, 540-767 transition: 1 µg lysate; for phosphopeptide, 580-480 transition / unphosphorylated peptide, 540-604 transition / phosphopeptide, 580-604 transition / unphosphorylated peptide, 540-767 transition / %phospho: K562, 5 min; for phosphopeptide, 580-604 transition / unphosphorylated peptide, 540-767 transition: transition not chosen for quantitation; for %phospho: from fmol of 580-480 and 540-604
Bcr-Abl [3] = molecular target: T1, Bcr-Abl; experiment: Cell-based biosensor assay, Western blot detection (4G10 antiphosphotyrosine / streptavidin); design: applied here to the disease-relevant, patient-derived CML model cell line K562; BCR N-terminal portion (fusion partner, human BCR P11274); endogenous in cells; host or cells: K562 (human CML cell line); details: 25 µM peptide alone, + 10 µM imatinib (1 h pre-incubation) or + 1 µM pervanadate; 5, 30, 60 min; N = 3
Method: Samples of equal protein content (100 µg/lane) were diluted into Laemmli buffer and subjected to SDS-PAGE. Proteins were transferred to nitrocellulose membrane and analyzed by Western blotting. Membranes were split at the 15 kD mark and blocked in 3% milk in TBS-T overnight at 4°C, followed by blotting with the indicated antibodies in 3% milk/TBS-T. The bottom membrane was blotted with: DyLight-649 labeled Streptavidin (1∶1000, ThermoFisher Pierce) to detect total biosensor; 4G10 α-phosphotyrosine antibody to detect the phosphorylated biosensor. […] Signals of immunoblots were visualized using the Odyssey system (LiCOR Biosciences, Lincoln, NE), quantified using densitometry with Quantity One (Bio-Rad), and analyzed with GraphPad Prism software.
We based the peptide biosensor assay for Bcr-Abl/Abl kinase activity on our previously reported methodology, [17], [18] applied here to the disease-relevant, patient-derived CML model cell line K562. […] Lysates were processed as described in the Experimental Procedures, separated by SDS-PAGE and analyzed by Western blot using a two-color LiCOR scanner for quantitative detection of IR-dye labeled secondary antibodies and streptavidin (to measure total peptide signal via the biotinylated residue).

[4] = biological replicate 1, P, P+G, P+V treatments
[5] = biological replicate 2, P, P+G, P+V treatments
[6] = biological replicate 3, P, P+G, P+V treatments

T1 sequence (P11274+P00519 fused): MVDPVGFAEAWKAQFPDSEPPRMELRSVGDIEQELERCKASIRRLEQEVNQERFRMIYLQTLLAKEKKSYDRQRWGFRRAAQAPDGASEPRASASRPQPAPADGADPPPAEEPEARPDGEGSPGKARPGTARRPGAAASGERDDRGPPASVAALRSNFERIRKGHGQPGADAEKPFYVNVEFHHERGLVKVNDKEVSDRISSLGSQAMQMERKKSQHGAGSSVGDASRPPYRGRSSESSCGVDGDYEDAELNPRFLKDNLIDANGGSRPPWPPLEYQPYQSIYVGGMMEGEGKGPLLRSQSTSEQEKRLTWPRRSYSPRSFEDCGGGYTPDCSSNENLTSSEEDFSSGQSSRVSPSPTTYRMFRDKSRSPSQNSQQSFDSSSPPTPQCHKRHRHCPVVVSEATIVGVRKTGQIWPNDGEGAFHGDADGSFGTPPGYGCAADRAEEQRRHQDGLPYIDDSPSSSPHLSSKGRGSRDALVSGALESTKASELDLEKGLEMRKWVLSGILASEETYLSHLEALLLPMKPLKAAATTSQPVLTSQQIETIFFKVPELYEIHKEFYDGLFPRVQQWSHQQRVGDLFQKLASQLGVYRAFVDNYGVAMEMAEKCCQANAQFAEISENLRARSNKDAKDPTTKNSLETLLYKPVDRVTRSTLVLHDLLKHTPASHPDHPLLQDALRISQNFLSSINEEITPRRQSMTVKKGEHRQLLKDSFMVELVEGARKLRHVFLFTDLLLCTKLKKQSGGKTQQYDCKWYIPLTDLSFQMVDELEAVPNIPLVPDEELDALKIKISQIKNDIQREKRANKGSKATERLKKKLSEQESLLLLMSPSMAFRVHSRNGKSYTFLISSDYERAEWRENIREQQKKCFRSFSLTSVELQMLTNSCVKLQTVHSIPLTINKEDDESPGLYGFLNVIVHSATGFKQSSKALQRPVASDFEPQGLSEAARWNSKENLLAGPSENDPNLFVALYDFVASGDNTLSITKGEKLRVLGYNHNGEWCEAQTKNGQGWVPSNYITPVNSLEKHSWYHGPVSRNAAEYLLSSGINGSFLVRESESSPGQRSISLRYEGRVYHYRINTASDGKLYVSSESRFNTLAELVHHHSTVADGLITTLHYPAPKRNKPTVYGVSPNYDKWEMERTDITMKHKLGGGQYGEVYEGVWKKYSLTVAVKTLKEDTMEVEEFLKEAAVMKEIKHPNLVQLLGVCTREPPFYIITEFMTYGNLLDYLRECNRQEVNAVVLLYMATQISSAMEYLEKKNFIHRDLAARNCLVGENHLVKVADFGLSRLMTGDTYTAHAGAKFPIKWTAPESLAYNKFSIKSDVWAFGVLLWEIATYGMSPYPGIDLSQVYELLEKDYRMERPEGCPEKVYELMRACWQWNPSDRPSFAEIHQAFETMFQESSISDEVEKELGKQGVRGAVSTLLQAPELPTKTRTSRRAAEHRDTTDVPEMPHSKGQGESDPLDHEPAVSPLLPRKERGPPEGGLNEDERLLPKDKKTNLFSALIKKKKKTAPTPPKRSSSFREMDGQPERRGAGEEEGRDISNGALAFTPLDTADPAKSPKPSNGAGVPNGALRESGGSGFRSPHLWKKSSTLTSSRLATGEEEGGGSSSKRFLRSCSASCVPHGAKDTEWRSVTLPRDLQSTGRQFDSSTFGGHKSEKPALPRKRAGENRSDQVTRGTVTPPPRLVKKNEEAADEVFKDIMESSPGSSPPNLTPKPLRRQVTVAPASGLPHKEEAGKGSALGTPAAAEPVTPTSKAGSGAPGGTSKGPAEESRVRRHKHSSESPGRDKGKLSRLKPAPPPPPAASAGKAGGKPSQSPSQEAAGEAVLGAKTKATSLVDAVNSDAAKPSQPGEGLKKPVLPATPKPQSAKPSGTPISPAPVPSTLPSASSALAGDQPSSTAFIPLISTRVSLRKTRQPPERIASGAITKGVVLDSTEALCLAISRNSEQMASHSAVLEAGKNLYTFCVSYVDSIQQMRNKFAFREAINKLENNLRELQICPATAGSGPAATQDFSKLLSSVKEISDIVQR
Method for K562 cells: Biosensor peptide from samples generated as described above (in the Cell-based biosensor assay section) was captured using streptavidin-coated MagneSpheres (Promega Corporation, Madison, WI). The beads (20 µl) were prepared by washing with 0.1% Octyl-β-glucoside/PBS (3×150 µl). K562 cell lysates (200 µg total protein) were incubated with the beads on a shaker (600 rpm, 60 min). Beads were captured using a MagnaBot 96-well magnetic capture device (Promega) and washed with 0.1% Octyl-β-glucoside/PBS (3×150 µl) and deionized water (3×150 µl). Peptide was eluted using 15 µL sample buffer (ACN/H2O/TFA, 50%/50%/0.1%). 0.5 µL from each sample was co-spotted with α-cyano-4-hydroxycinnamic acid (10% w/v) containing ammonium dihydrogen phosphate (5 mg/ml), [22] dried and analyzed on a 4800 MALDI-TOF/TOF Analyzer (ABSciex). Selected ions were analyzed by MS/MS (specifying the parent ion mass for selection and CID) and sequenced de novo.
Peptide in lysates was enriched using streptavidin-coated magnetic nanoparticles through the peptide’s biotinylated reporter segment.

Q: For `Cc1ccc(NC(=O)c2ccc(CN3CCN(C)CC3)cc2)cc1Nc1nccc(-c2cccnc2)n1` [imatinib], which “CML patients achieving initial remission with imatinib” value [1] is on record?
A: Approximately 90%

Q: And the “patients who never respond or develop recurrent and/or resistant disease (relapse within a few years; 1–5 years of starting treatment)” value [1]?
A: approximately 30%

Q: And the “patients whose remission remains stable for a long period of time” value [1]?
A: ~70%

Q: Which results are given for pervanadate?
A: Unphospho (fmol), Peptide+pervanadate (Bcr-Abl [2]; K562 cells, 25 µM peptide + 1 µM pervanadate, 5 min, 540→604, per µg of digested lysate, mean ±SD of three replicates): 14 ± 0.6 fmol; Phospho (fmol), Peptide+pervanadate (Bcr-Abl [2]; K562 cells, 25 µM peptide + 1 µM pervanadate, 5 min, 580→480, per µg of digested lysate, mean ±SD of three replicates): 17 ± 12 fmol; % phospho, Peptide+pervanadate (Bcr-Abl [2]; K562 cells, 25 µM peptide + 1 µM pervanadate, 5 min, MRM, mean ±SD of three replicates): 52±16%; Total (fmol), Peptide+pervanadate (Bcr-Abl [2]; K562 cells, 25 µM peptide + 1 µM pervanadate, 5 min, unphosphorylated plus phosphorylated, per µg of digested lysate, mean ±SD of three replicates): 31 ± 13 fmol; phosphorylated peptide detected by MRM (in words) (Bcr-Abl [2]; K562 cells): higher levels; phosphopeptide, 580-480 transition (Bcr-Abl [2]; biological replicate 1, P = peptide alone, P+G = + imatinib, P+V = + pervanadate, corrected AUC x 1/slope): 31.582 fmol; unphosphorylated peptide, 540-604 transition (Bcr-Abl [2]; [4]): 14.1586 fmol; phosphopeptide, 580-604 transition (Bcr-Abl [2]; [4]): 42.5934 fmol; unphosphorylated peptide, 540-767 transition (Bcr-Abl [2]; [4]): 15.6618 fmol; %phospho (Bcr-Abl [2]; [4]): 69.0458%; phosphopeptide, 580-480 transition (Bcr-Abl [2]; [5]): 10.229 fmol; unphosphorylated peptide, 540-604 transition (Bcr-Abl [2]; [5]): 12.9195 fmol; phosphopeptide, 580-604 transition (Bcr-Abl [2]; [5]): 16.5395 fmol; unphosphorylated peptide, 540-767 transition (Bcr-Abl [2]; [5]): 12.6668 fmol; %phospho (Bcr-Abl [2]; [5]): 44.1886%; phosphopeptide, 580-480 transition (Bcr-Abl [2]; [6]): 10.3517 fmol; unphosphorylated peptide, 540-604 transition (Bcr-Abl [2]; [6]): 13.5084 fmol; phosphopeptide, 580-604 transition (Bcr-Abl [2]; [6]): 16.6663 fmol; unphosphorylated peptide, 540-767 transition (Bcr-Abl [2]; [6]): 11.085 fmol; %phospho (Bcr-Abl [2]; [6]): 43.385%; phosphorylation of the biosensor peptide in K562 cells (Western blot, 4G10) (Bcr-Abl [3]): stabilized

Q: Which “site of degradation of the biosensor in cells” value (K562 cells) does the source give for “EAIYAAPFAKKK(γ-biotin)G-βNpa-GCGGAPTYSPPPPPGGRKKRRQRRRLL [Peptide]” here?
A: C-terminal degradation

Q: And the “Total (fmol), Peptide only” value (Bcr-Abl [2]; K562 cells, 25 µM peptide alone, 5 min, unphosphorylated plus phosphorylated, per µg of digested lysate, MRM, mean ±SD of three replicate biological experiments)?
A: 28 ± 5 fmol

Q: And the “phosphorylated peptide detected by MRM (in words)” value (Bcr-Abl [2]; K562 cells)?
A: both unphosphorylated and phosphorylated peptides were detected

Q: And the “phosphorylation of the biosensor peptide in K562 cells (Western blot, 4G10)” value (Bcr-Abl [3])?
A: phosphorylated
